The values below come from patent US11052028B2, “Process for depigmenting keratin materials using thiopyridinone compounds” (L'OREAL, priority 2010, dated 2021).

“Also recorded” adds a separate entry of the source. Some results are limits rather than exact numbers.

In data set [1] the test system is coculture of keratinocytes and melanocytes. The experiment in a line: Cytotoxicity on coculture, estimated by leucine incorporation. Type of data set: cell-based. Here is the method: (§1) The modulatory effect of each compound on melanogenesis was measured according to the method described in FR-A-2734825 and also in the article by R. Schmidt, P. Krien and M. Regnier, Anal. Bichem., 235(2), 113-18,1996. This test is carried out on a coculture of keratinocytes and melanocytes.
(§2) For the compounds tested, the following were determined: • the cytotoxicity, by estimating leucine incorporation, • the inhibitory activity on melanin synthesis, by estimating the ratio of thiouracil incorporation to leucine incorporation, relative to 100% of the control (the control corresponds to the test carried out without test compound). The IC50 values (concentration for which 50% of the melanin synthesis is inhibited) were determined.
(§3) The test was also carried out with arbutin, niacinamide and kojic acid, which are known depigmenting compounds.

For data set [2] the test system is unchanged. The experiment in a line: Inhibitory activity on melanin synthesis (constitutive melanogenesis), ratio of thiouracil incorporation to leucine incorporation. It counts as cell-based. Particulars: for IC50: read-out: IC50 (concentration for which 50% of the melanin synthesis is inhibited); for efficacy in inhibiting melanogenesis compared with known depigmenting compounds: conclusion in words from the coculture test. As for the experimental part:
as §1, §2, §3

Where [3] appears, read: ratio of thiouracil to leucine incorporation, relative to 100% of the control, coculture of keratinocytes and melanocytes.

Turning to `OC[C@H]1O[C@@H](Oc2ccc(O)cc2)[C@H](O)[C@@H](O)[C@@H]1O` [Arbutin, reference compound], the Cytotoxicity on coculture entry in data set [1] is “Non-cytotoxic”. Moreover, the IC50 in data set [2] (setting [3]) is greater than 500 µM.
In the case of `CCNC(=O)c1ccc[nH]c1=S` [Compound 2, N-ethyl-2-thioxo-1,2-dihydropyridine-3-carboxamide], the Cytotoxicity on coculture entry in data set [1] is reported as “Non-cytotoxic”. For the same molecule, in data set [2], the “efficacy in inhibiting melanogenesis compared with known depigmenting compounds” value is “more effective than arbutin, kojic acid and niacinamide; also recorded: the most effective compound”. Moreover, the IC50 in data set [2] (setting [3]) was found to be 4.9 µM.
In the case of `CCCCCNC(=O)c1ccc[nH]c1=S` [Compound 7, N-pentyl-2-thioxo-1,2-dihydropyridine-3-carboxamide], the Cytotoxicity on coculture entry in data set [1] is “Non-cytotoxic”. Further, the “efficacy in inhibiting melanogenesis compared with known depigmenting compounds” value in data set [2] was “more effective than arbutin, kojic acid and niacinamide”. Also, the IC50 in data set [2] (setting [3]) was 32 µM.
For the molecule `O=C(NC1CCCCC1)c1ccc[nH]c1=S` [Compound 12, N-cyclohexyl-2-thioxo-1,2-dihydropyridine-3-carboxamide], in data set [1], the Cytotoxicity on coculture result is recorded as “Non-cytotoxic”. Further, in data set [2], the “efficacy in inhibiting melanogenesis compared with known depigmenting compounds” value is “more effective than arbutin, kojic acid and niacinamide”. Also, in data set [2] (setting [3]), the IC50 turned out to be 37 µM.
Regarding `COc1ccc(CCNC(=O)c2ccc[nH]c2=S)cc1` [Compound 16, N-[2-(4-methoxyphenyl)ethyl]-2-thioxo-1,2-dihydropyridine-3-carboxamide], the Cytotoxicity on coculture in data set [1] is 100 µM. Besides, the “efficacy in inhibiting melanogenesis compared with known depigmenting compounds” value in data set [2] was “more effective than arbutin, kojic acid and niacinamide”. For the same molecule, the IC50 in data set [2] (setting [3]) was determined as 25 µM.
Turning to `O=C(NCCO)c1ccc[nH]c1=S` [Compound 19, N-(2-hydroxyethyl)-2-thioxo-1,2-dihydropyridine-3-carboxamide], the Cytotoxicity on coculture entry in data set [1] is “Non-cytotoxic”. Moreover, the “efficacy in inhibiting melanogenesis compared with known depigmenting compounds” value in data set [2] was “more effective than arbutin, kojic acid and niacinamide”. The IC50 in data set [2] (setting [3]) is 410 µM.
Take `O=C(NCC(O)CO)c1ccc[nH]c1=S` (stereo not drawn) [Compound 21, N-(2,3-dihydroxypropyl)-2-thioxo-1,2-dihydropyridine-3-carboxamide]: the Cytotoxicity on coculture entry in data set [1] was “Non-cytotoxic”. Besides, the “efficacy in inhibiting melanogenesis compared with known depigmenting compounds” value in data set [2] was “more effective than arbutin, kojic acid and niacinamide”. Besides, the IC50 in data set [2] (setting [3]) was found to be 128 µM.
Turning to `CCN(CC)C(=O)c1ccc[nH]c1=S` [Compound 27, N,N-diethyl 2-mercaptonicotinamide], the Cytotoxicity on coculture entry in data set [1] is on record as “Non-cytotoxic”. The “efficacy in inhibiting melanogenesis compared with known depigmenting compounds” value in data set [2] is “more effective than arbutin, kojic acid and niacinamide”. In data set [2] (setting [3]), the IC50 turned out to be 29 µM.
Consider `O=c1cc(CO)occ1O` [Kojic acid, reference compound], for which the Cytotoxicity on coculture in data set [1] was 100 µM. The IC50 in data set [2] (setting [3]) was greater than 500 µM.
With `NC(=O)c1cccnc1` [Niacinamide, reference compound], the Cytotoxicity on coculture result in data set [1] is given as “Non-cytotoxic”. For the same molecule, the “IC50 (concentration for which 50% of the melanin synthesis is inhibited)” value in data set [2] (setting [3]) is listed as “Not attained”.
